# Assay results taken from ChEMBL document CHEMBL1201862, “PubChem BioAssay data set” (2004).
# Active and inactive are the calls of the source.
# How the values were obtained:
# [1] = HepG2 cell cytotoxicity, dose response, cytotoxicity control for non-replicating M. tuberculosis project (AID 489018); format: functional; settings: Mycobacterium tuberculosis
# cells = format: functional
# Bcl-2-like protein 10 = molecular target: T1, Bcl-2-like protein 10 (Homo sapiens, UniProt Q9HD36); test: displacers of TR3 peptide from Bcl-B, primary screen, selectivity assay for Bfl-1 inhibitor project, biochemical, fluorescence polarization, FITC-TR3 peptide (AID 748);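 also: fluorescence polarization from a fluorescein-labelled TR3 peptide binding purified Bcl-B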
# T1 sequence (Q9HD36 whole entry): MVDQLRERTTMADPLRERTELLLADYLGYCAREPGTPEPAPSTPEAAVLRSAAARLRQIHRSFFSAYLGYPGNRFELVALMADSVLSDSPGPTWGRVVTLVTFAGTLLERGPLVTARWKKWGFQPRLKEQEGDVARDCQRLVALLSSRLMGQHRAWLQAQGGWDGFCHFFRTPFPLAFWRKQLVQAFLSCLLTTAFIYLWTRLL
# [2] = molecular target: T2, Histone-lysine N-methyltransferase NSD2 (Homo sapiens, UniProt O96028); format: biochemical
# T2 sequence (O96028 whole entry): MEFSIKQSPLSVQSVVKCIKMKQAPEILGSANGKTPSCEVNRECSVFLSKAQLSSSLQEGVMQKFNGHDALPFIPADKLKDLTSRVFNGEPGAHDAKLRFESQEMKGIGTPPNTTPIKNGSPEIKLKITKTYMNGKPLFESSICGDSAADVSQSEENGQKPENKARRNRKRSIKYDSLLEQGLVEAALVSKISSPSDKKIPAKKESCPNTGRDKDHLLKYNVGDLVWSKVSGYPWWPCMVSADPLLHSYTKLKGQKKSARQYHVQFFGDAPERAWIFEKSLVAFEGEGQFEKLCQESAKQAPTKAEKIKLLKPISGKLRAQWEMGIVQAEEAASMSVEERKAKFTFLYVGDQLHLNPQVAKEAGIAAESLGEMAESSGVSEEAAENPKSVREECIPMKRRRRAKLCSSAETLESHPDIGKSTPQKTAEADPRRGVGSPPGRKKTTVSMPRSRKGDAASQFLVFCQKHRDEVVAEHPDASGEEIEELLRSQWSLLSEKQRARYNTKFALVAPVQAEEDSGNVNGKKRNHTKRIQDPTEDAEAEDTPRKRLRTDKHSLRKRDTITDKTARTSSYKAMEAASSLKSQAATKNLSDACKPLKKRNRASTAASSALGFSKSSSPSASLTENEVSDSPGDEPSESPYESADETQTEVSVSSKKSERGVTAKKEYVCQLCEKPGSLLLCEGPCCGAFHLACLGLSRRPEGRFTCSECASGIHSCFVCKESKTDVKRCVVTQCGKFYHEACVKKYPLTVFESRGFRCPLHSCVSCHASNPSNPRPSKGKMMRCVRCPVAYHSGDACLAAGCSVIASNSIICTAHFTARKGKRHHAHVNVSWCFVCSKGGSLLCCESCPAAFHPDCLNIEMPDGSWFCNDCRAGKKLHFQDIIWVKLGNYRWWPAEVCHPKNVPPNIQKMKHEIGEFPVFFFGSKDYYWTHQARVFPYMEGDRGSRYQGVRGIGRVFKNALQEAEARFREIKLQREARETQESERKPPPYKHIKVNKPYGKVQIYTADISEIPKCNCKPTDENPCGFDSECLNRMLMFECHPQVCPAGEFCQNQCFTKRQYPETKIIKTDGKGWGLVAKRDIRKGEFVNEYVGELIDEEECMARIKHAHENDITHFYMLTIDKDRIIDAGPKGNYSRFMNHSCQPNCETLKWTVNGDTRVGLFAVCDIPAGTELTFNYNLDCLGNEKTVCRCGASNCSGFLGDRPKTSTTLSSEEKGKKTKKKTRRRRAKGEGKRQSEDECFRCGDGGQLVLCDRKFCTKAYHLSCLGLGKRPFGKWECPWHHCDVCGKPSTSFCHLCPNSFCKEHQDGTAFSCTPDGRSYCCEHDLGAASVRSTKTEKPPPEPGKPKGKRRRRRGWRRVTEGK
# [3] = molecular target: Eukaryotic translation initiation factor 4E (Mus musculus, UniProt P63073); test: eIF4E–eIF4G protein interaction inhibitors, dose response, biochemical, TR-FRET (AID 855); format: functional;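 also: potency for disrupting eIF4E binding to eIF4GI seen as loss of FRET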
# [4] = P. falciparum Dd2 growth inhibitors, dose response, SYBR Green, cherry-picked samples (AID 1159567); format: functional, cell-based
# [5] = intracellular Trypanosoma cruzi inhibitors in host cells – cell-based, plate reader, cherry-pick samples, set 3, dose response (AID 651818); format: functional;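 also: compounds incubated with infected cells for about four days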
# [6] = P. falciparum Dd2 growth inhibitors, dose response, SYBR Green, dry powder samples (AID 1159566); format: functional, cell-based;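 also: potency for growth inhibition with lower SYBR green DNA signal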
# [7] = P. falciparum 3D7-ScDHODH growth inhibitors, dose response, SYBR Green, dry powder samples (AID 1159570); format: functional, cell-based;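 also: parasite growth measured after 72 hours of compound exposure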
# [8] = P. falciparum ATP4 D1247Y mutant growth inhibitors, dose response, NITD609-resistant line, SYBR Green, dry powder (AID 1159571); format: functional, cell-based;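 also: parasites synchronized at ring stage by sorbitol before testing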
# Paired box protein Pax-8 = Paired box protein Pax-8 (Homo sapiens, UniProt Q06710); test: inhibitors of PAX8-driven TPO luciferase reporter, dose response, RMG-I cells, cherry-pick (AID 687027); format: functional, cell-based;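 also: luciferase reporter driven by Pax8 target thyroperoxidase promoter measured by SteadyGlo luminescence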
# [9] = cytotoxicity in OVCAR8 ovarian cancer cells, dose response, PAX8 project, cell-based, plate reader, dry powder samples (AID 743197); format: functional; settings: OVCAR-8
# [10] = A549 cell cytotoxicity, dose response, cytotoxicity control, plate reader, cherry-pick, antagonist series (AID 743412); format: functional, cell-based
# [11] = MC4R antagonists, dose response, counter-screen for LGR2 antagonist project, cell-based, plate reader, cherry pick (AID 743444); format: functional;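 also: transfected HEK 293 cells stimulated with alpha-MSH peptide; potency of inhibitors of the alpha-MSH evoked signal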
# [12] = HEK293 cell cytotoxicity, dose response, cytotoxicity control, plate reader, cherry-picked samples (AID 743446); format: functional, cell-based
# [13] = HepG2 cell cytotoxicity, dose response, cytotoxicity control, plate reader, cherry-pick, antagonist series (AID 743416); format: functional, cell-based
# [14] = LGR2 antagonists, dose response, cell-based, HEK293, CRE-luciferase reporter, cherry pick, set 2 (AID 743343); format: functional;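 also: transfected cells were stimulated with diluted bursicon conditioned medium after compound addition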
# Prothrombin = Prothrombin (Homo sapiens, UniProt P00734); test: Thrombin 1536 HTS Dose Response Confirmation. [Related pubchem assays: 1046 (Thrombin 1536 HTS; hits were confirmed in this assay)]; format: functional
# [15] = human group III sPLA2 inhibitors, dose response, biochemical, QFRET, IC50 (AID 743457);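 also: green fluorescence rise as the enzyme cleaves BODIPY PC-A2 in liposomes; potency for inhibition of the enzyme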
# [16] = HepG2 cell cytotoxicity, dose response, cytotoxicity control, cherry-picked samples (AID 1159577); format: functional, cell-based
# Sequence of Eukaryotic translation initiation factor 4E (P63073 whole entry): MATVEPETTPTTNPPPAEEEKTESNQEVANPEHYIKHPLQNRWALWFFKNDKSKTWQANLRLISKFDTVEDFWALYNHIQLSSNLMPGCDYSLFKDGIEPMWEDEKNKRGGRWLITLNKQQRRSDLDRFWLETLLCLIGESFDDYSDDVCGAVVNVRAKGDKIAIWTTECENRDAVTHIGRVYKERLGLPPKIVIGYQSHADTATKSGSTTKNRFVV
# Sequence of Paired box protein Pax-8 (Q06710 whole entry): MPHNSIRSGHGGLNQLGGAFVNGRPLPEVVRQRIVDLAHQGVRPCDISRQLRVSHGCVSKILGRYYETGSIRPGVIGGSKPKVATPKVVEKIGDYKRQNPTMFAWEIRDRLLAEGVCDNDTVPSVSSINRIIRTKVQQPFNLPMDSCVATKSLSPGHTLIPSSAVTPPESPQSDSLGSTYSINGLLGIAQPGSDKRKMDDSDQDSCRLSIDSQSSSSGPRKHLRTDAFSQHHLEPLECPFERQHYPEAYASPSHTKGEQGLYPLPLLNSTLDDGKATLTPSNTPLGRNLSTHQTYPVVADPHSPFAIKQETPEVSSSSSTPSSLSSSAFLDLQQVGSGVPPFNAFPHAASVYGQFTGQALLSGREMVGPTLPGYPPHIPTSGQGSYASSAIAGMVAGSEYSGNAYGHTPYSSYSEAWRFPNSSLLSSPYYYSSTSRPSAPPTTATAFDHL
structure (smiles),measurement,setting,value
CCOc1ccc(C(=O)Nc2ccc(N3CCN(C)CC3)cc2)cc1Br,CC50,[1],> 20 µM (active)
same,IC50,cells,31.4 µM (active)
same,IC50,Bcl-2-like protein 10,0.558 µM (active)
CCN1/C(=C/C(C)=C/c2sc3ccccc3[n+]2CC)Sc2ccccc21,AC50,[2],7.11 µM (active)
Cc1cc(O)c(/C=N/OCc2ccc(Cl)cc2Cl)c(=O)o1,IC50,[3],50 µM (inactive)
C[C@@H]1CN([C@H](C)CO)C(=O)c2cccc(NC(=O)Nc3cccc4ccccc34)c2O[C@@H]1CN(C)C(=O)Nc1ccc(C(F)(F)F)cc1,AC50,[4],1.59 µM (active)
same,AC50,[5],7.71 µM (active)
same,AC50,[6],1.37 µM (active)
same,AC50,[7],1.15 µM (active)
same,AC50,[8],1.21 µM (active)
C[C@H]1CN([C@@H](C)CO)S(=O)(=O)c2ccc(-c3ccc(C#N)cc3)cc2O[C@@H]1CN(C)Cc1cccc(F)c1,AC50,Paired box protein Pax-8,8.67 µM (active)
same,AC50,[9],> 60 µM (inactive)
N#C[C@@H]1[C@H](c2ccc(C#Cc3ccc(F)cc3)cc2)[C@@H](CO)N1C(=O)C1CCCC1,AC50,[10],19.1 µM (active)
same,AC50,[11],13.1 µM (active)
same,AC50,[12],50.9 µM (active)
same,AC50,[13],18.5 µM (active)
same,AC50,[14],15.8 µM (active)
O=C(O)c1ccc(/N=C/c2nc(-c3ccco3)oc2O)cc1,IC50,Prothrombin,> 50 µM (not active)
C/C(=N\NC(=S)Nc1ccc(C)cc1)c1cc2ccccc2o1.CN(C)C=O,IC50,[15],31.8 µM (inactive)
COc1ccccc1C#Cc1ccc([C@H]2[C@@H](C#N)N(C(=O)C3CC3)[C@H]2CO)cc1,AC50,[6],0.692 µM (active)
same,AC50,[7],1.35 µM (active)
same,AC50,[8],1.69 µM (active)
CCCNC(=O)N1[C@H](CO)[C@H](c2ccc(C3=CCCCC3)cc2)[C@H]1CNC(C)C,AC50,[4],5.26 µM (active)
same,AC50,[16],39.6 µM (active)
C[C@@H]1CN([C@@H](C)CO)C(=O)c2cc(C#CCc3ccccc3)cnc2O[C@H]1CN(C)CC1CCCC1,AC50,[4],1.31 µM (active)
same,AC50,[16],14.2 µM (active)
